Where “and” joins values, the source holds several entries; their conditions need not be identical. Identical values can stand only once.
What was measured:
[1] = system: NCI-H460 (EGFR-WT); assay: MTT cell viability assay; format: cell-based, human
Procedure: All of the other chemicals and reagents were from Sigma, or Invitrogen.
Measure the background absorbance of multiwell plates at 690 nm and subtract from the 570 nm measurement. […] Each experiment was carried out in triplicate.

[2] = system: T-47D; assay: NCI 60 cell line single dose screen (SRB); format: cell-based; settings: Homo sapiens, T47D; T-47D (breast cancer), single dose 10^−5 M, 48 h; read-out: Growth inhibition percentage
Outline: (§1)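 Cells were plated and grown 24 h at 37 °C, 5% CO2 before compound addition from DMSO stock, then exposed 48 h. Adherent cells were fixed with cold TCA (final 10%) and suspension cells with 16% TCA. SRB-stained protein was read at 515 nm and percent growth was calculated against time-zero and untreated plates.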

[3] = system: MCF7; assay: NCI 60 cell line single dose screen (SRB); format: cell-based; settings: Homo sapiens; MCF7 (breast cancer), single dose 10^−5 M, 48 h; read-out: Growth inhibition percentage
Outline: as §1

[4] = system: LOX IMVI; assay: NCI 60 cell line single dose screen (SRB); format: cell-based; settings: Homo sapiens; LOX IMVI (melanoma), single dose 10^−5 M, 48 h; read-out: Growth inhibition percentage
Outline: as §1

[5] = system: SW-620; assay: NCI 60 cell line single dose screen (SRB); format: cell-based; settings: Homo sapiens; SW-620 (colon cancer), single dose 10^−5 M, 48 h; read-out: Growth inhibition percentage
Outline: as §1

[6] = system: SNB-19; assay: NCI 60 cell line single dose screen (SRB); format: cell-based; settings: Homo sapiens; SNB-19 (CNS cancer), single dose 10^−5 M, 48 h; read-out: Growth inhibition percentage
Outline: as §1

[7] = system: SK-OV-3; assay: NCI 60 cell line single dose screen (SRB); format: cell-based; settings: Homo sapiens; SK-OV-3 (ovarian cancer), single dose 10^−5 M, 48 h; read-out: Growth inhibition percentage
Outline: as §1

[8] = system: COLO 205; assay: NCI 60 cell line single dose screen (SRB); format: cell-based; settings: Homo sapiens, COLO 205, 48 h; read-out: Growth inhibition percentage
Outline: as §1

[9] = system: HOP-62; assay: NCI 60 cell line single dose screen (SRB); format: cell-based; settings: Homo sapiens; HOP-62 (non-small cell lung cancer), single dose 10^−5 M, 48 h; read-out: Growth inhibition percentage
Outline: as §1

[10] = system: 786-0; assay: NCI 60 cell line single dose screen (SRB); format: cell-based; settings: Homo sapiens; 786-0 (renal cancer), single dose 10^−5 M, 48 h; read-out: Growth inhibition percentage
Outline: as §1

[11] = system: PC-3; assay: NCI 60 cell line single dose screen (SRB); format: cell-based; settings: Homo sapiens; PC-3 (prostate cancer), single dose 10^−5 M, 48 h; read-out: Growth inhibition percentage
Outline: as §1

[12] = system: MDA-MB-435; assay: NCI 60 cell line single dose screen (SRB); format: cell-based; settings: Homo sapiens; MDA-MB-435 (melanoma), single dose 10^−5 M, 48 h; read-out: Growth inhibition percentage
Outline: as §1

[13] = system: UO-31; assay: NCI 60 cell line single dose screen (SRB); format: cell-based; settings: Homo sapiens; UO-31 (renal cancer), single dose 10^−5 M, 48 h; read-out: Growth inhibition percentage
Outline: as §1

[14] = system: HCC-2998; assay: NCI 60 cell line single dose screen (SRB); format: cell-based; settings: Homo sapiens; HCC-2998 (colon cancer), single dose 10^−5 M, 48 h; read-out: Growth inhibition percentage
Outline: as §1

[15] = system: NCI-H322M; assay: NCI 60 cell line single dose screen (SRB); format: cell-based; settings: Homo sapiens; NCI-H322M (non-small cell lung cancer), single dose 10^−5 M, 48 h; read-out: Growth inhibition percentage
Outline: as §1

[16] = system: RPMI-8226; assay: NCI 60 cell line single dose screen (SRB); format: cell-based; settings: Homo sapiens; RPMI-8226 (leukemia), single dose 10^−5 M, 48 h; read-out: Growth inhibition percentage
Outline: as §1

[17] = system: IGROV1; assay: NCI 60 cell line single dose screen (SRB); format: cell-based; settings: Homo sapiens, IGROV-1; IGROV1 (ovarian cancer), single dose 10^−5 M, 48 h; read-out: Growth inhibition percentage
Outline: as §1

[18] = target: T1, ErbB2 (Homo sapiens, UniProt P04626); assay: ErbB2 kinase inhibition (HTScan HER2/ErbB2 Kinase Assay Kit); format: biochemical; settings: mean ± SD of three experiments; read-out: IC50 for inhibitory activity against ErbB2 enzyme
T1 construct: purchased
T1 sequence (P04626 23-1255): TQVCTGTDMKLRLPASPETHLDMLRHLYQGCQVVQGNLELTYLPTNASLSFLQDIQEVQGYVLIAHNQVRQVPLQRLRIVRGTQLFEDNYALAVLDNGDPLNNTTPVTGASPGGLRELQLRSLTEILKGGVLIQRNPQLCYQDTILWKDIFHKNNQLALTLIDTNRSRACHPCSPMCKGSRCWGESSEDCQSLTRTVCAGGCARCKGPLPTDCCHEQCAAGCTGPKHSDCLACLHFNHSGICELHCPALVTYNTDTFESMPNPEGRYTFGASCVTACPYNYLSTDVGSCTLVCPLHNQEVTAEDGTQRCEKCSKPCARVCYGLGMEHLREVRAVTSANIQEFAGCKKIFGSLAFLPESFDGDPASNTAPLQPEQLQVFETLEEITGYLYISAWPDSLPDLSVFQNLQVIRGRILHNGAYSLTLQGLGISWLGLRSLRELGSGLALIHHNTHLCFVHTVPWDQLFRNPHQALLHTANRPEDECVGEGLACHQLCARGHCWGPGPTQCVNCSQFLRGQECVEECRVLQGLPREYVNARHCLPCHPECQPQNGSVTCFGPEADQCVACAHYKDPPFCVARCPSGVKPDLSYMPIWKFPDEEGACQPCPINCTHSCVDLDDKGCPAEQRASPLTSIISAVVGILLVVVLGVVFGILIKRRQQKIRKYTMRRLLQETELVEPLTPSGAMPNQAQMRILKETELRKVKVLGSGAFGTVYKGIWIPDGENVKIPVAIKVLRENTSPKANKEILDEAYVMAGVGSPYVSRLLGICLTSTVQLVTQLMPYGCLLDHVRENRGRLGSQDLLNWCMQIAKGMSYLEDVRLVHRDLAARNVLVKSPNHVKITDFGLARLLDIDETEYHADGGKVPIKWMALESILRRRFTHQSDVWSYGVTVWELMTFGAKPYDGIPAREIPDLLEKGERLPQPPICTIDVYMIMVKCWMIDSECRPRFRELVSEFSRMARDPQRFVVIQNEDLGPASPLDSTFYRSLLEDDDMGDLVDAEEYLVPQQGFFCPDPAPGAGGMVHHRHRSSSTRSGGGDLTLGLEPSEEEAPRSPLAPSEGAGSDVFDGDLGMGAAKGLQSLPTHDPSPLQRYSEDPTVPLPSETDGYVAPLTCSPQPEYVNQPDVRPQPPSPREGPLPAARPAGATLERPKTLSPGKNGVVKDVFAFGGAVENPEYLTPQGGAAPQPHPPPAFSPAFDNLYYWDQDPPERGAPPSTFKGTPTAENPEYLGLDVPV
Procedure: In brief, add 10 μL of 10 mM ATP to 1.25 ml of 6 μM substrate peptide. Dilute the mixture with dH20 to 2.5 ml. Transfer enzyme from −80 °C to ice. Allow enzyme to thaw on ice. Micro-centrifuge briefly at 4 °C. Return immediately to ice. […] Transfer 1.2 ml of DTT/Kinase buffer to each enzyme. […] Add 25 μL of ATP/substrate cocktail to 25 μL/well pre-incubated reaction cocktail/compound. Incubate reaction plate at room temperature for 30 min. Add 50 μL/well stop buffer to stop the reaction. Transfer 25 μL of each reaction and 75 μL dH2O/well to a 96-well streptavidin coated, plate and incubate at room temperature for 60 min. Wash three times with 200 μL/well phosphate-buffered saline (PBS). […] Add 100 μL/well primary antibody. Incubate at room temperature for 60 min and wash three times. Prepare appropriate dilution of horseradish peroxidase (HRP) labelled secondary antibody in PBS with 1% BSA. Add 100 μL/well secondary antibody solution. Incubate at room temperature for 30 min and wash five times. Add 100 μL/well 3,3′,5,5′-tetramethylbenzidine (TMB) substrate. Incubate at room temperature for 15 min. Add 100 μL/well of stop solution. Mix well and read the absorbance at 450 nm with a microtitre plate reader.

Question: Which IC50 ([1]; Homo sapiens, NCI-H460 (EGFR-WT) lung cancer, MTT, 48 h, mean ± SD of three experiments, read-out: IC50 (concentration required for 50% inhibition of cell viability)) does the source give for `Cc1nn(-c2ccc(F)cc2)c2ncnc(Nc3ccc(F)c(Cl)c3)c12` [Compound 7d, N-(3-Chloro-4-fluorophenyl)-1–(4-fluorophenyl)-3-methyl-1H-pyrazolo[3,4-d] pyrimidin-4-amine] here?
Answer: 18.7 ± 0.71 µM

Question: And the “Potency relative to Erlotinib (fold more potent)” value ([1]; NCI-H460 EGFR-WT, from IC50 values)?
Answer: ~3.5 fold

Question: And the inhibition at 10 µM [2]?
Answer: 27.4%

Question: And the inhibition at 10 µM [3]?
Answer: 15.7%

Question: What about the inhibition at 10 µM [4] of the same compound?
Answer: 8.68%

Question: And the inhibition at 10 µM [5]?
Answer: 11.1%

Question: And the inhibition at 10 µM [6]?
Answer: 20.4%

Question: And the inhibition at 10 µM [7]?
Answer: 13.9%

Question: What about the inhibition at 10 µM [8] of the same compound?
Answer: -3.96%

Question: What about the inhibition at 10 µM [9] of the same compound?
Answer: 38.7%

Question: What about the inhibition at 10 µM [10] of the same compound?
Answer: 21.3%

Question: And the inhibition at 10 µM [11]?
Answer: 17.2%

Question: And the inhibition at 10 µM [12]?
Answer: 0.1%

Question: And the inhibition at 10 µM [13]?
Answer: 25.5%

Question: What about the inhibition at 10 µM [14] of the same compound?
Answer: 1.79%

Question: What about the inhibition at 10 µM [15] of the same compound?
Answer: 12%

Question: And the inhibition at 10 µM [16]?
Answer: 9.77%

Question: What about the inhibition at 10 µM [17] of the same compound?
Answer: 27.6%

Question: What about the IC50 [18] of the same compound?
Answer: 0.25 µM and 0.254 µM

From publication PMC6352943, “Novel pyrazolo[3,4-d]pyrimidines: design, synthesis, anticancer activity, dual EGFR/ErbB2 receptor tyrosine kinases inhibitory activity, effects on cell cycle profile and caspase-3-mediated apoptosis” (Journal of Enzyme Inhibition and Medicinal Chemistry, 2019)
